In US20240207292A1, “BORONIC ACID COMPOUNDS, COMPOSITIONS AND METHODS” (Trustees of Tufts College, priority 2021, published 2024):

Assay: Stability of 6555 with sulfur-containing and other stabilizers, 50 mM AAPH at 80° C. for 30 mins (Tables 7-9)
Format: physicochemical
Settings: for 6555 Remaining (%): 50 mM AAPH, 80° C., 0.5 hr, (+) mode; for 6555 Remain (%): AAPH 80° C. 30 mins
Source text: The effect of specified sulfur-containing compounds and other stabilizer compounds (including non-sulfur-containing stabilizer compounds) and mixtures of sulfur-containing compounds and non-sulfur-containing stabilizer compounds with the boronic acid compound 6555 (structure shown above) at various pH values.

6555 Remaining (%) (NAM 5 mM, sodium metabisulfite 5 mM, pH 4.3): 88.8%
6555 Remaining (%) (NAM 25 mM, pH 4.0): 85.9%
6555 Remaining (%) (no stabilizer, pH 4.6): 55.8%
6555 Remaining (%) (sodium ascorbate 2.5 mM, sodium gentisate 1 mM, Acetone sodium bisulfite (2.5 mM), pH 4.6): 73.1%
6555 Remaining (%) (sodium ascorbate 2.5 mM, sodium gentisate 1 mM, Acetone sodium bisulfite (25 mM), pH 4.6): 94.0%
6555 Remaining (%) (sodium ascorbate 2.5 mM, sodium gentisate 1 mM, D-mannitol (25 mM), pH 4.5): 15.5%
6555 Remaining (%) (sodium ascorbate 2.5 mM, sodium gentisate 1 mM, Disodium hydrosulfite (25 mM), pH 4.3): 94.1%
6555 Remaining (%) (sodium ascorbate 2.5 mM, sodium gentisate 1 mM, MSM(dimethyl sulfone) (25 mM), pH 4.5): 8.2%
6555 Remaining (%) (sodium ascorbate 2.5 mM, sodium gentisate 1 mM, N-Acetyl-L-phenylalanine (25 mM), pH 4.0): 20.1%
6555 Remaining (%) (sodium ascorbate 2.5 mM, sodium gentisate 1 mM, N-Acetyl-L-tyrosine (25 mM), pH 4.0): 13.6%
6555 Remaining (%) (sodium ascorbate 2.5 mM, sodium gentisate 1 mM, NAC (25 mM), pH 4.1): 31.4%
6555 Remaining (%) (sodium ascorbate 2.5 mM, sodium gentisate 1 mM, NAM 2.5 mM, sodium metabisulfite 2.5 mM, pH 4.5): 94.8%
6555 Remaining (%) (sodium ascorbate 2.5 mM, sodium gentisate 1 mM, NAM 2.5 mM, pH 4.5): 53.3%
6555 Remaining (%) (sodium ascorbate 2.5 mM, sodium gentisate 1 mM, NAM 10 mM, sodium metabisulfite 2.5 mM, pH 4.0): 93.2%
6555 Remaining (%) (sodium ascorbate 2.5 mM, sodium gentisate 1 mM, NAM 25 mM, sodium metabisulfite 2.5 mM, pH 4.0): 92.2%
6555 Remaining (%) (sodium ascorbate 2.5 mM, sodium gentisate 1 mM, NAM 25 mM, pH 4.0): 90.8%
6555 Remaining (%) (sodium ascorbate 2.5 mM, sodium gentisate 1 mM, Potassium metabisulfite (2.5 mM), pH 4.4): 93.7%
6555 Remaining (%) (sodium ascorbate 2.5 mM, sodium gentisate 1 mM, Potassium metabisulfite (25 mM), pH 4.5): 94.1%
6555 Remaining (%) (sodium ascorbate 2.5 mM, sodium gentisate 1 mM, Sodium L-Glutamate monohydrate (concentration cut off), pH 4.7): 8.2%
6555 Remaining (%) (sodium ascorbate 2.5 mM, sodium gentisate 1 mM, Sodium formaldehydesulfoxylate di (concentration cut off), pH 4.4): 91.7%
6555 Remaining (%) (sodium ascorbate 2.5 mM, sodium gentisate 1 mM, Sodium formaldehydesulfoxylate di (concentration cut off, second entry), pH 4.5): 58.0%
6555 Remaining (%) (sodium ascorbate 2.5 mM, sodium gentisate 1 mM, Sodium sulfite (2.5 mM), pH 4.5): 67.9%
6555 Remaining (%) (sodium ascorbate 2.5 mM, sodium gentisate 1 mM, Sodium sulfite (5 mM), pH 4.6): 90.3%
6555 Remaining (%) (sodium ascorbate 2.5 mM, sodium gentisate 1 mM, Sodium sulfite (10 mM), pH 4.8): 93.8%
6555 Remaining (%) (sodium ascorbate 2.5 mM, sodium gentisate 1 mM, Sodium sulfite (25 mM), pH 5.1): 94.1%
6555 Remaining (%) (sodium ascorbate 2.5 mM, sodium gentisate 1 mM, Thiourea (25 mM), pH 4.5): 84.1%
6555 Remaining (%) (sodium ascorbate 2.5 mM, sodium gentisate 1 mM, disodium hydrosulfite 1 mM, pH 4.5): 47.4%
6555 Remaining (%) (sodium ascorbate 2.5 mM, sodium gentisate 1 mM, disodium hydrosulfite 2.5 mM, pH 4.4): 91.7%
6555 Remaining (%) (sodium ascorbate 2.5 mM, sodium gentisate 1 mM, disodium hydrosulfite 5.0 mM, pH 4.5): 94.3%
6555 Remaining (%) (sodium ascorbate 2.5 mM, sodium gentisate 1 mM, disodium hydrosulfite 10.0 mM, pH 4.5): 94.1%
6555 Remaining (%) (sodium ascorbate 2.5 mM, sodium gentisate 1 mM, disodium hydrosulfite 40.0 mM, pH 4.0): 94.6%
6555 Remaining (%) (sodium ascorbate 2.5 mM, sodium gentisate 1 mM, sodium metabisulfite 1 mM, pH 4.5): 71.1%
6555 Remaining (%) (sodium ascorbate 2.5 mM, sodium gentisate 1 mM, sodium metabisulfite 2.5 mM, pH 4.5): 93.4%
6555 Remaining (%) (sodium ascorbate 2.5 mM, sodium gentisate 1 mM, sodium metabisulfite 25 mM, pH 4.4): 93.8%
6555 Remaining (%) (sodium ascorbate 2.5 mM, sodium gentisate 1 mM, pH 4.6): 30.8%
6555 Remaining (%) (sodium ascorbate 2.5 mM, sodium gentisate 1 mM, pH 5.1): 16.7%
6555 Remaining (%) (sodium ascorbate 5 mM, sodium gentisate 2 mM, NAM 5 mM, disodium hydrosulfite 5 mM, pH 4.5): 95.7%
6555 Remaining (%) (sodium ascorbate 5 mM, sodium gentisate 2 mM, NAM 5 mM, sodium metabisulfite 5 mM, pH 4.5): 95.8%
6555 Remaining (%) (sodium ascorbate 5 mM, sodium gentisate 2 mM, NAM 5 mM, pH 4.5): 66.5%
6555 Remaining (%) (sodium ascorbate 5 mM, sodium gentisate 2 mM, sodium metabisulfite 5 mM, disodium hydrosulfite 5 mM, pH 4.4): 95.3%
6555 Remaining (%) (sodium ascorbate 5 mM, sodium gentisate 2 mM, sodium metabisulfite 5 mM, pH 4.5): 95.6%
6555 Remain (%) (Sodium ascorbate (2.5 mM) +, Sodium gentisate (1 mM) +, Stabilizer (2.5 mM) Sodium sulfite, pH 5.1, SID 90517): 94.1%
6555 Remain (%) (ascorbate (2.5 mM) +, gentisate (1 mM) +, Sodium hydrosulfite 2.5 mM, pH 4.4, SID 90537): 91.7%
6555 Remain (%) (ascorbate (2.5 mM) +, gentisate (1 mM) +, Sodium hydrosulfite 5.0 mM, pH 4.5, SID 90542): 94.3%
Compound: C[C@@H](NC(=O)c1ccc(CNC(=O)CN2CCN(CC(=O)O)CCN(CC(=O)O)CCN(CC(=O)O)CC2)cc1)C(=O)N1CCC[C@H]1B(O)O [compound 6555, DOTA-aminomethyl-Bz-D-Ala-boroPro]
